The values that follow come from patent US20060034992A1, “Flavor and fragrance compounds” (priority 2002, published 2006).

The nature of this data set: Release rate of acetaldehyde from precursor (acid hydrolysis) in phosphate buffer, UV extinction at 280 nm. The format is physicochemical. Conditions: for half-life at 2.5 mg/mL: phosphate buffer; for rate constant k: Precursor + H2O -> Ethanol + Acetaldehyde. The protocol: The release rate of acetaldehyde from the precursor according to formula II with n=1 is measured and compared to 1,2-di[(1′-ethoxy)ethoxy]propane and acetaldehyde diethyl. The measurements are conducted as described in S. M. Oon and D. G. Kubler, “Hydrolysis of Aldal Acetals”, J. Org. Chem., 1982, 47, 1166-1171. A phosphate buffer solution (2 mL) is placed into a quartz cuvette and 5 mg of the respective acetaldehyde precursor is added. The mixture is mixed well and sealed using Parafilm™. The release of acetaldehyde is monitored in a UV-Photometer measuring the increase of the extinction at 280 nm over time. Depending on reaction speed, all 3 to 10 seconds measurements are conducted. […] by the formula C(t)=C0+Cx×(1−e^−kt), wherein C(t) the absorption corresponding to the concentration of acetaldehyde at time t, C0 absorption corresponding to the concentration of acetaldehyde at time t=0, Cx the total amount of acetaldehyde present in the precursor, k the rate constant and t the reaction time. The rate constants are calculated by a numeric approximation program (TABLE CURVE 2D, ©AISN Software Inc.). The half life time λ is calculated from the rate constant using the equation λ=−ln(0.5)/k.

[1] abbreviates: pH 3.5, read-out: half-life (acetaldehyde release) (converted).
Setting [2] is: pH 3.0, read-out: half-life (acetaldehyde release) (converted).

In general, half-life refers to the time in which the quantity being followed falls by half.

Molecules are shown by their SMILES. Like-named read-outs stand apart in the source and are kept apart here.

With `CCOC(C)OCC(C)OC(C)OCC` (stereo not shown) [1,2-di[(1′-ethoxy)ethoyx]propane, 1,2-di[(1′-ethoxy)ethoxy]propane, reference compound], the half-life at 2.5 mg/mL by setting is: under setting [1], 65.1 min; under setting [2], 10.4 min.
Take `CCOC(C)OCC` [acetaldehyde diethyl acetal, reference compound]: the half-life at 2.5 mg/mL under setting [1] is 41.5 min and the half-life at 2.5 mg/mL under setting [2] is 9.65 min.
With `CCOC(C)OC(C)OCC` (stereo not shown) [1-ethoxy-1-(1-ethoxy-ethoxy)-ethane], the release of acetaldehyde entry (acidic conditions) was “rapidly releases acetaldehyde”. For the same molecule, the stability result (neutral pH conditions) is listed as “stable”. Further, the rate constant k by setting is: (pH 2.8) 0.005966 s⁻¹; (pH 3.18) 0.003446 s⁻¹; (pH 3.81) 0.00069 s⁻¹; (pH 4.14) 0.000382 s⁻¹. For the same molecule, the half-life at 2.5 mg/mL is, setting by setting: under setting [1], 16.1 min; (pH 2.8, calculated from rate constant, read-out: half life time λ (converted)) 1.93 min; under setting [2], 5.1 min; (pH 3.18, calculated from rate constant, read-out: half life time λ (converted)) 3.35 min; (pH 3.81, calculated from rate constant, read-out: half life time λ (converted)) 16.7 min; (pH 4.14, calculated from rate constant, read-out: half life time λ (converted)) 30.2 min.
